This passage reports IC50 results from PubChem BioAssay AID1645866 (Buhrlage Lab, Dana-Farber Cancer Institute and Novartis …, 2021).

Molecules are shown by their SMILES. Calls of active or inactive are those of the source.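 The calls were made as follows: active = in confirmatory dose-response testing, peak deubiquitinase inhibition of 30% or more; inactive = the rest.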 Some results are limits rather than exact numbers.

The target of this test is Ubiquitin carboxyl-terminal hydrolase 28 (Homo sapiens) (UniProt Q96RU2). Description: Ubiquitin-specific peptidase 28 DUB inhibitors, biochemical concentration-dependence assay, validation of primary screening hits (AID 1645866). The settings on record: purified USP28, ubiquitin-rhodamine fluorescence, 30 min.
Sequence of Ubiquitin carboxyl-terminal hydrolase 28 (Homo sapiens) (Q96RU2 whole entry, looked up): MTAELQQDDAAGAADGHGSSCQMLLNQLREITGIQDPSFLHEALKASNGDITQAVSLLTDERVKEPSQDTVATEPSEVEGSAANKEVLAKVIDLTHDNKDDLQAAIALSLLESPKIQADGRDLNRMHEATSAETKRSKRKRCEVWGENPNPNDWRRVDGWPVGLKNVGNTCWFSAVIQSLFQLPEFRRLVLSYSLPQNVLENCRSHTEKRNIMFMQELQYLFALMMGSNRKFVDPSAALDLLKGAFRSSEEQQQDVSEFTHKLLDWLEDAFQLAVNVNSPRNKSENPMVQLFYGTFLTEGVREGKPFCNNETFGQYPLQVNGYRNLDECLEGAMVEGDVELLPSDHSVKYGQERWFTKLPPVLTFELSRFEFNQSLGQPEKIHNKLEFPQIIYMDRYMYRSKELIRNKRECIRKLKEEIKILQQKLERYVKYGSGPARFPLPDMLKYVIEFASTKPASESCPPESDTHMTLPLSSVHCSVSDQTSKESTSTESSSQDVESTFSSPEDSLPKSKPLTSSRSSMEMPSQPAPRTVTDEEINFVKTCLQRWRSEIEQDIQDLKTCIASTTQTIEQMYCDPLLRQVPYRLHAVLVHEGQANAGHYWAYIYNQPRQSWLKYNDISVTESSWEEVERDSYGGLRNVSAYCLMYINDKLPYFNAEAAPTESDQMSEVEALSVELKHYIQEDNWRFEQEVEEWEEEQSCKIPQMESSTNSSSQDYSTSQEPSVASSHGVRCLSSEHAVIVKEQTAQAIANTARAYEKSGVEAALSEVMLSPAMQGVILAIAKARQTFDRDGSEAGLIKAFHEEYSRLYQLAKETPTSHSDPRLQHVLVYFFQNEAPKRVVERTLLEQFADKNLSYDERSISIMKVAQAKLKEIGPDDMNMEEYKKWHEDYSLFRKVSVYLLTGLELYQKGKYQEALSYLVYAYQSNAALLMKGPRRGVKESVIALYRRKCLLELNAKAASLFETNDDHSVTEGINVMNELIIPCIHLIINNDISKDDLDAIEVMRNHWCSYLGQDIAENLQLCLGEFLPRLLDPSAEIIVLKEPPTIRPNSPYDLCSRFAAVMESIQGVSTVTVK
The IC50 is the concentration that gives 50% inhibition. `O=c1[nH]c(-c2ccccn2)nc2c1CCN(Cc1cnn(-c3ccccc3)c1)C2`: the IC50 is > 50 µM (inactive).

In the case of `CN1C(=O)[C@]23CC4=CC=C[C@H](O)[C@H]4N2C(=O)[C@@]1(CO)SS3`, the IC50 is > 50 µM (inactive).

For the compound `COc1cc(OC)cc(C(=O)Nc2cnc(-c3ccccc3)nc2)c1`, the IC50 is > 50 µM (inactive).

With `NC(=O)c1nc(-c2ccccn2)nc2c1[nH]c(=O)n2-c1ccc2c(c1)OCO2`, the 50% inhibitory concentration (IC50) is 6.72 µM.

Consider `COc1ccc(/C=C/C(=O)N2CCc3ccccc32)cc1S(=O)(=O)N1CCOCC1`, for which the IC50 was > 50 µM (inactive).

Consider `COc1ccc(C(=O)Nc2ccc3c(c2)C(=O)N(C)c2ccccc2O3)cc1`, for which the 50% inhibitory concentration (IC50) was 8.9 µM.

`COc1cc2c(cc1OC)-c1cc(Nc3ccc(Br)cc3)nc(=O)n1CC2`: the half-inhibitory concentration (IC50) is 1.84 µM.

For `O=C(/C=C/c1c(F)cccc1Cl)N1CCc2ccccc2C1`, the concentration for half-maximal inhibition (IC50) was 36.3 µM.

For `Cc1ccc(NC2=NC(c3ccco3)n3c(nc(C)cc3=O)N2)c(C)c1` (stereo not given), the half-maximal inhibitory concentration (IC50) was 8.38 µM.

With `O=C(NCc1ccc(-c2nc3cnccc3o2)cc1)c1cc2ccccc2o1`, the half-maximal inhibitory concentration (IC50) was 4.43 µM.

With `O=C(NC1CCCCC1)c1cc2c(cn1)[nH]c1ccccc12`, the IC50 is 2.51 µM.

In the case of `Cc1ccc2c(c1)c(=O)c(C(=O)c1ccccc1)cn2CC(=O)Nc1ccccc1`, the IC50 was 15.4 µM.

With `O=C1CN(C(=O)COC(=O)CCCN2C(=O)c3cccc4cccc(c34)C2=O)c2ccccc2N1`, the IC50 is 48.5 µM.

As for `Cc1cc(N2CCN(c3ncccn3)CC2)nc2ccc(NC(=O)/C=C/c3ccccc3Cl)cc12`, the IC50 was 7.79 µM.

Consider `Fc1cnc(N2CC[C@H]3CO[C@H](CNc4ncccn4)[C@H]3C2)nc1`, for which the IC50 is > 50 µM (inactive).

For the compound `Cc1ccccc1-c1noc(-c2ccccc2OCC(=O)NC(C)C)n1`, the IC50 was > 50 µM (inactive).

For `O=C(NCCN1CCCC1)C1CCN(c2cnc(N3CCCCC3)nc2)CC1`, the IC50 is < 0.05 µM.

As for `CC(OC(=O)CNC(=O)c1ccc(Br)cc1)C(=O)Nc1ccc2c(c1)OCCO2` (stereo not given), the IC50 was 25.8 µM.

`FC(F)(F)c1cccc(Nc2nnc(-c3cccnc3)s2)c1`: the IC50 is 12.1 µM.

As to `CCCc1nc2c(sc3nc4c(cc32)COC(C)(C)C4)c(=O)n1CC(=O)Nc1ccccc1C`, the 50% inhibitory concentration (IC50) is 21.9 µM.

As to `COc1ccc(/C=C\c2nccc3c2[nH]c2ccccc23)cc1`, the IC50 was > 50 µM (inactive).

With `COC(=O)[C@]1(O)O[C@@]2(C(=O)OC)c3c(oc4cc(C)cc(O)c4c3=O)[C@H]3c4c(oc5cc(C)cc(O)c5c4=O)C[C@H]1[C@H]32`, the IC50 was > 50 µM (inactive).

As for `COCCNC(=O)Cn1c(=O)n(Cc2ccccc2)c(=O)c2c3c(sc21)CCC3`, the concentration for half-maximal inhibition (IC50) is 32.7 µM.

Turning to `CC(=O)Nc1ccc(S(=O)(=O)Nc2ccc(Nc3ccc(-n4cccn4)nn3)cc2)cc1`, the concentration for half-maximal inhibition (IC50) is 32.8 µM.

For `Cc1ccc(Cn2cc(-c3noc(-c4ccncc4)n3)nn2)cc1`, the IC50 was 36.9 µM.

As to `Cc1ccc(CN2CCCn3nc(C(=O)NCc4ccccc4C)cc3C2=O)cc1`, the IC50 is 45.2 µM.

Consider `CCCn1c(=O)n(CC(=O)c2ccccc2F)c2c(C(N)=O)nc(-c3ccco3)nc21`, for which the IC50 is > 50 µM (inactive).

For the compound `COCCNC(=O)c1ccn(-c2ccc3ccc(-c4ccncc4)cn23)n1`, the IC50 is > 50 µM (inactive).

On to `Cc1ccc2[nH]c(=O)c(CN(CC3COCCO3)S(=O)(=O)c3ccc(F)cc3)cc2c1` (stereo not given), for which the half-inhibitory concentration (IC50) was 13.5 µM.

In the case of `CCNc1oc(-c2ccc(S(=O)(=O)N3CCCCC3)cc2)nc1C#N`, the 50% inhibitory concentration (IC50) was 26.6 µM.

Consider `O=c1ncn(Cc2ccc3c(c2)OCO3)cc1-c1ncc(C(F)(F)F)cc1Cl`, for which the IC50 was > 50 µM (inactive).

As for `CC1CCc2c(sc3ncnc(OCc4cccc([N+](=O)[O-])c4)c23)C1` (stereo not given), the concentration for half-maximal inhibition (IC50) is < 0.05 µM.

Turning to `Cc1ccc(-c2cnc(C3CC3)o2)cc1S(=O)(=O)Nc1ccc(F)c(Cl)c1`, the IC50 is 32.5 µM.

For the compound `O=C(CN(Cc1ccc(Cl)cc1)S(=O)(=O)c1ccc(Cl)cc1)N1CCOCC1`, the IC50 is > 50 µM (inactive).

Take `C=C(NC(=O)C(=C)NC(=O)c1csc(C2=N[C@@H]3c4csc(n4)[C@H]4NC(=O)c5csc(n5)[C@H]([C@](C)(O)[C@@H](C)O)NC(=O)[C@H]5CSC(=N5)/C(=C/C)NC(=O)C([C@@H](C)O)NC(=O)c5csc(n5)C3(CC2)NC(=O)[C@H](C)NC(=O)C(=C)NC(=O)[C@H](C)NC(=O)C([C@@H](C)CC)N[C@@H]2C=Cc3c(C(C)O)cc(nc3[C@H]2O)C(=O)OC4C)n1)C(N)=O` (stereo not given in full): the IC50 was > 50 µM (inactive).

As to `Cc1ccccc1-c1nnc(-c2ccc(C(=O)NCc3ccccc3F)cc2)o1`, the IC50 was 12.6 µM.

Regarding `O=C(Cn1c(-c2ccccc2)ncc(C(=O)NC2CC2)c1=O)Nc1ccccc1`, the IC50 is 14.2 µM.

For `CC[C@@]1(O)C[C@H](OC2CC(N(C)C)C(OC3CC(O)C(OC4CCC(=O)C(C)O4)C(C)O3)C(C)O2)c2c(cc3c(c2O)C(=O)c2c(O)ccc(O)c2C3=O)[C@H]1C(=O)OC` (stereo not given in full), the half-inhibitory concentration (IC50) was 4.26 µM.

Regarding `O=C1COc2ccc(NC(=O)c3cnn(Cc4ccccc4)c3)cc2N1`, the 50% inhibitory concentration (IC50) is 25.4 µM.

In the case of `Cc1ccc(C)c(CSC2=NCCN2C(=O)c2ccco2)c1`, the concentration for half-maximal inhibition (IC50) is 4.07 µM.

In the case of `COc1cc(Cl)ccc1C(=O)Nc1cccc(-n2cnnn2)c1C`, the IC50 was 11.2 µM.

`NS(=O)(=O)c1cc(C(=O)OCC(=O)NC2CCCc3ccccc32)ccc1Cl` (stereo not given): the concentration for half-maximal inhibition (IC50) was 31.2 µM.

`O=S(=O)(c1cccc(F)c1)N1CCc2nc3ccccc3n2CC1`: the IC50 is 10.8 µM.

For `COc1cccc2cc(C(=O)Nc3nc(-c4ccncc4)cs3)oc12`, the IC50 was 0.647 µM.

Turning to `O=C(O)c1ccccc1C(=O)Nc1ccc(SC(C(=O)Nc2cccc(Cl)c2)c2ccccc2)cc1` (stereo not given), the IC50 was 22.4 µM.

For `O=C(/C=C/c1ccc(F)cc1)N1CCC(Cc2ccccc2)CC1`, the IC50 was 47.4 µM.

As for `COc1cccc(NC(=O)Nc2ccc(NC(C)=O)cc2)c1`, the half-maximal inhibitory concentration (IC50) was 4.04 µM.

Consider `CN1C(=O)[C@@]23C[C@]4([C@@]56C[C@]78SS[C@](CO)(C(=O)N7[C@@H]5Nc5ccccc56)N(C)C8=O)c5ccccc5N[C@@H]4N2C(=O)[C@]1(CO)SS3`, for which the IC50 was > 50 µM (inactive).

For `CCCCn1c(=O)c(CCC(=O)OCC(=O)Nc2ccc3c(c2)OCCO3)nc2ccccc21`, the IC50 was 3.65 µM.

Regarding `O=C(NC1CCCC1)c1cccc(-c2ccc(N3CCCC3)nc2)c1`, the IC50 is 8.14 µM.

On to `O=c1[nH]c(C2CCN(S(=O)(=O)c3ccc(S(=O)(=O)NC4CCCCC4)cc3)CC2)nc2c1nnn2Cc1c(Cl)cccc1Cl`, for which the IC50 is 8.62 µM.

`O=C(CNc1ccc(F)c(Cl)c1)Nc1ccc2c(c1)OCCO2`: the IC50 was 15.6 µM.

As for `O=C(CC1C(=O)N(Cc2ccccc2)c2nc3ccccc3n21)NCCc1ccccc1` (stereo not given), the IC50 is 15.9 µM.

With `COc1ccccc1OCC(=O)Nc1ccc2c(c1)CCC(=O)N2Cc1ccccc1`, the IC50 is > 50 µM (inactive).

`CCOC(=O)c1cc2c(ccn2C)n1CC(=O)N1CCc2ccccc2C1`: the IC50 is > 50 µM (inactive).

On to `COc1ccc(-c2cc3nc([C@H](C)NC(=O)Cc4ccccc4C)nn3cn2)cc1`, for which the IC50 is 2.61 µM.

For the compound `Cc1nnc(NC(=O)C2CCN(c3ccc(S(N)(=O)=O)cc3[N+](=O)[O-])CC2)o1`, the IC50 was 11.1 µM.

Turning to `COc1ccc2nc(-c3ccc(NC(=O)c4cccc(OC)c4OC)cc3)cn2n1`, the concentration for half-maximal inhibition (IC50) was 2.43 µM.

For the compound `O=C(c1cnccn1)N1CCc2[nH]c3ccc(F)cc3c2C1`, the IC50 was > 50 µM (inactive).

As for `O=C1Nc2c(Cl)cc(Cl)cc2C1(O)c1sc(NC2CCCCC2)nc1-c1ccccc1` (stereo not given), the IC50 is 24.6 µM.

With `O=C(NCC(c1cccnc1)N1CCc2ccccc2C1)C(=O)Nc1ccc2c(c1)OCO2` (stereo not given), the concentration for half-maximal inhibition (IC50) was 28.8 µM.

On to `COC1=CC(=O)c2c(O)c(C)c(CC(C)=O)c(O)c2C1=O`, for which the IC50 is > 50 µM (inactive).

For the compound `c1cnc(-c2n[nH]c(C3CCN(C4CCNC4)CC3)n2)cn1` (stereo not given), the IC50 was > 50 µM (inactive).

In the case of `Cn1c(CCN2CCCC2)nc2cc(NC(=O)c3ccccc3)ccc21`, the IC50 is > 50 µM (inactive).

Take `O=C(Nc1nc2c(s1)COCC2)c1cc(-c2ccco2)[nH]n1`: the IC50 was > 50 µM (inactive).

As for `CC1(C)Cc2c(c(-c3ccco3)nc3sc4c(SCCCc5ccccc5)ncnc4c23)CO1`, the IC50 was 34.9 µM.

With `Cc1ccc(Cn2cc(-c3noc(-c4ccc[nH]4)n3)nn2)cc1`, the half-maximal inhibitory concentration (IC50) is 16.2 µM.

Take `COc1cccc(-n2nnc(C(=O)Nc3ccc(C)c(C)c3)c2C)c1`: the 50% inhibitory concentration (IC50) was 8.7 µM.

With `Nc1ncnc(SCc2ccc(Cl)cc2)n1`, the half-maximal inhibitory concentration (IC50) is 19.7 µM.

`O=C(O)COc1ccccc1/C=C1\CCc2c1nc1ccccc1c2C(=O)O`: the IC50 is > 50 µM (inactive).

In the case of `COc1ccc(-c2cc(C(C)=O)c(C)n2CCC(=O)Nc2ccc(OC)cc2OC)cc1`, the 50% inhibitory concentration (IC50) was 43.1 µM.

As for `Cc1ccc(NC(=O)CSc2nc3c(cc2C#N)C(=O)CCC3)cc1`, the IC50 was 21 µM.

In the case of `COc1ccc(OC)c(NC(=O)C2=C(C)Nc3ncnn3C2c2ccccc2OCc2ccc(C)cc2)c1` (stereo not given), the half-maximal inhibitory concentration (IC50) was 19.9 µM.

For `O=S(=O)(c1ccc2c(c1)OCCO2)N(Cc1ccccc1)Cc1nnc(-c2ccccc2)o1`, the IC50 was > 50 µM (inactive).

`Cn1cc(-c2cnc(-c3cccc(F)c3)nc2)cc1C(=O)NCc1cccnc1`: the IC50 is 36.8 µM.

As for `COc1ccc(N2CCN(Cc3nnnn3Cc3ccc4c(c3)OCO4)CC2)cc1`, the IC50 was > 50 µM (inactive).

For the compound `CC1=CC(=O)C(C2=C(O)C(=O)C(C)=CC2=O)=C(O)C1=O`, the IC50 is 20.3 µM.

Take `CN(C)c1ccc(CCN2CCc3nc4cccnc4cc3C2)cc1`: the IC50 is > 50 µM (inactive).

For the compound `COc1cc2c(cc1NC(=O)c1ccc(-n3cnnn3)cc1)oc1ccccc12`, the IC50 was 1.33 µM.

Consider `O=c1ccc(-c2noc(-c3ccc4cc[nH]c4c3)n2)c[nH]1`, for which the IC50 is > 50 µM (inactive).

As to `CN(C)C1CCN(C(=O)c2cc(-c3ccn(-c4ccccc4)n3)n3ccccc23)CC1`, the IC50 was > 50 µM (inactive).

On to `Cc1ccccc1OCCSc1nc2ccccc2n1CC(=O)NC1CC1`, for which the IC50 was 20.7 µM.

With `CCN(C(=O)c1cc2c(Cl)nc3ccccc3c2s1)c1ccccc1F`, the IC50 is > 50 µM (inactive).

For `Cc1ccc(C(=O)Nc2ccc(S(=O)(=O)N3CCCC3)cc2)cc1Br`, the IC50 is 3.32 µM.

For the compound `O=C(OCc1ccc(F)cc1)c1ccc2ccccc2n1`, the half-maximal inhibitory concentration (IC50) is 2.55 µM.
